Experimental data: patent US12440537B1, “Compositions and methods for treating skin diseases, disorders, or conditions” (Washington University, priority 2020, dated 2025)
Ends that are not written are not given here.

What was measured:
vitamin D receptor [1] = molecular target: T1, vitamin D receptor (Mus musculus, UniProt P48281); assay: Nuclear localization of vitamin D receptor in MC903-treated keratinocytes; type: cell-based; design: endogenous in cells; host or cells: Ivl-/- keratinocytes; details: MC903 treated lvl-/- keratinocytes
T1 sequence (P48281 1-422): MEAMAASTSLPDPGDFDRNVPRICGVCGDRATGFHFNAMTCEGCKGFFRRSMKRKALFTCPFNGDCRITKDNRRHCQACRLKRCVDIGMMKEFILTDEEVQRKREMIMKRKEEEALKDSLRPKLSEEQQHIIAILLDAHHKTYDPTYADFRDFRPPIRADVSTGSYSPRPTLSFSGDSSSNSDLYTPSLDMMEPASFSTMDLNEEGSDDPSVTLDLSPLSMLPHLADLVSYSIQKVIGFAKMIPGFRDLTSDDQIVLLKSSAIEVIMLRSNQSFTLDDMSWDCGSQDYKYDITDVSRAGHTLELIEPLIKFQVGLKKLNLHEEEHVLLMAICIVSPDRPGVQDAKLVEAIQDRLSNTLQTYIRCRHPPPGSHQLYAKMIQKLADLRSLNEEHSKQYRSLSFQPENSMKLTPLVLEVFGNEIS

vitamin D receptor [2] = molecular target: T1, vitamin D receptor; assay: MC903 vitamin D receptor-mediated skin inflammation in WT and Involucrin (lvl) -/- mice; type: in vivo; design: from tissue; host or cells: skin of WT and Ivl-/- mice (in vivo)
Protocol: Here, vitamin D receptor-mediated skin inflammation was induced in Involucrin (lvl) -/- mice and vitamin D receptor function in the epidermis was evaluated (see e.g., FIG. 14). It was shown that vitamin D receptor-induced inflammation is reduced in lvl^-/- skin (see e.g., FIG. 15). […] Basophils are a major source of IL-4 and IL-6 expression that drives skin inflammation (see e.g., FIG. 21).

keratinocytes [3] = assay: IVL peptide protection against keratinocyte cell (detergent) lysis; type: cell-based; details: keratinocytes treated with IVL late repeat peptide
keratinocytes [4] = assay: Keratinocyte barrier function after IVL peptide treatment; type: cell-based; details: keratinocytes treated with IVL peptide

| CD4+ T cells (vitamin D receptor [2]; MC903-treated lvl-/- skin) | vitamin D receptor induced inflammation (vitamin D receptor [2]; MC903 treatment, lvl-/- skin compared to WT) | Molecule | nuclear localization of vitamin D receptor (vitamin D receptor [1]) | cell type populations (scRNA-seq) (vitamin D receptor [2]; MC903-treated lvl-/- skin) | protection against keratinocyte cell lysis (keratinocytes [3]) | protection against keratinocyte cell lysis (keratinocytes [3]; listed as IVL late repeat peptide) | protection against keratinocyte cell lysis (keratinocytes [3]; listed as “late” repeat IVL peptide) | keratinocyte barrier function (keratinocytes [4]) |
| --- | --- | --- | --- | --- | --- | --- | --- | --- |
| significantly decreased | significantly reduced as early as day 6 | C=C1/C(=C\C=C2/CCC[C@]3(C)[C@@H]([C@H](C)/C=C/[C@@H](O)C4CC4)CC[C@@H]23)C[C@@H](O)C[C@@H]1O [MC903] | loss of nuclear localization of vitamin D receptor | Decreased basophils, macrophages, CD4^+ T cells, and basal II keratinocytes, and increased suprabasal keratinocytes | – | – | – | – |
| – | – | ELPEQQEGQL (ELPEQQEGQL-NH2) [IVL peptide] | – | – | protects against keratinocyte cell lysis | protects the keratinocyte from detergent lysis | resistant to detergent lysis | improves keratinocyte barrier function |
